Patent publication US12492173B2, “Herbicidal substituted N-tetrazolyl aryl carboxamides” (Bayer Aktiengesellschaft, priority 2019, dated 2025)

Experiments:
Assay type in all cases: in vivo
[1] = tested on: Avena fatua; experiment: Post-emergence herbicidal action, AVEFA; set-up: key: % herbicidal action vs untreated; 100 = plants died, 0 = like control; details: Dosage 80 g/ha
Method in brief: (§1)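 One-leaf-stage weeds, raised from seed in greenhouse sandy loam, received a single foliar spray of compound as wettable powder or emulsion concentrate with 0.2% wetting agent added. Growth continued under optimal conditions for about 3 weeks before percent damage was scored by eye against controls.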

[2] = tested on: Veronica persica; experiment: Post-emergence herbicidal action, VERPE; set-up: key: % herbicidal action vs untreated; 100 = plants died, 0 = like control; details: Dosage 80 g/ha
Method in brief: as §1

[3] = tested on: Viola tricolor; experiment: Pre-emergence herbicidal action, VIOTR; details: dosage 320 g/ha; for herbicidal activity VIOTR: scored visually after 3 weeks vs untreated controls (100% = plants have died)
Method in brief: (§2)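 Visual scoring after 3 weeks in the greenhouse, relative to untreated pots, gave percent activity, where 100% means dead plants and 0% equals controls. Treatment was a pre-emergence soil-surface spray of WP or EC formulations in water (600 to 800 l/ha, 0.2% wetting agent) over seeds covered in sandy loam.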

[4] = tested on: Setaria viridis; experiment: Post-emergence herbicidal action, SETVI; set-up: key: % herbicidal action vs untreated; 100 = plants died, 0 = like control; details: Dosage 80 g/ha
Method in brief: as §1

[5] = tested on: Echinochloa crus-galli; experiment: Pre-emergence herbicidal action, ECHCG; details: dosage 320 g/ha; for herbicidal activity ECHCG: scored visually after 3 weeks vs untreated controls (100% = plants have died)
Method in brief: as §2

Row | Compound | herbicidal action AVEFA [1] | herbicidal action VERPE [2] | herbicidal activity VIOTR [3] [%] | herbicidal action SETVI [4] | herbicidal activity ECHCG [5] [%] | herbicidal action VIOTR [3] [%] | herbicidal action ECHCG [5] [%]
1 | CSCc1c(C(F)F)ccc(C(=O)Nc2nnnn2C)c1C [Example 1-107, 4-(difluoromethyl)-2-methyl-3-[(methylsulfanyl)methyl]-N-(1-methyl-1H-tetrazol-5-yl)benzamide] | 80 | 100 | 90 | 90 | 100 |  | 
2 | CCn1nnnc1NC(=O)c1ccc(C(F)(F)F)c(CS(C)(=O)=O)c1OC [Example 2-136] | 100 | 100 | 100 | 100 | 100 |  | 
3 | Cn1nnnc1NC(=O)c1ccc(C(F)(F)F)c(C[S+](C)[O-])c1F (stereo not shown) [Example 1-243] | 80 | 100 | 100 | 100 | 100 |  | 
4 | CCCn1nnnc1NC(=O)c1ccc(C(F)F)c(CSC)c1C [Example 3-107] | 80 | 100 | 100 | 90 | 100 |  | 
5 | Cn1nnnc1NC(=O)c1ccc(C(F)(F)F)c(CS(C)(=O)=O)c1F [Example 1-244] |  | 100 | 100 | 100 | 100 |  | 
6 | CCn1nnnc1NC(=O)c1ccc(C(F)(F)F)c(C[S+](C)[O-])c1OC (stereo not shown) [Example 2-135] | 100 | 100 | 100 | 100 | 100 |  | 
7 | CCCn1nnnc1NC(=O)c1ccc(C(F)(F)F)c(CS(=O)(=O)CC)c1C [Example 3-88] | 80 | 90 | 100 | 90 | 100 |  | 
8 | Cc1c(C(=O)Nc2nnnn2C)ccc(C(F)(F)F)c1CS(C)(=O)=O [Example 1-85] | 80 | 100 | 100 | 100 | 100 |  | 
9 | Cc1c(C(=O)Nc2nnnn2C)ccc(C(F)F)c1CS(C)(=O)=O [Example 1-109] |  | 100 | 100 | 90 | 90 |  | 
10 | CCn1nnnc1NC(=O)c1ccc(S(C)(=O)=O)c(CS(C)(=O)=O)c1C [Example 2-39] |  | 100 |  | 100 |  | 100 | 90
11 | CCCn1nnnc1NC(=O)c1ccc(C(F)(F)F)c(CS(=O)(=O)CC)c1Br [Example 3-385] |  | 100 | 100 | 90 | 100 |  | 
12 | CCCn1nnnc1NC(=O)c1ccc(C(F)F)c(C[S+]([O-])CC)c1Cl (stereo not shown) [Example 3-324] | 100 |  | 100 | 100 | 100 |  | 
